Data from paper PMC6657216, “Defining the Contribution of CYP1A1 and CYP1A2 to Drug Metabolism Using Humanized CYP1A1/1A2 and Cyp1a1/Cyp1a2 Knockout Mice” (Drug Metabolism and Disposition, 2019).

What was measured:
Cyp1a/CYP1A enzymes = experiment: TCDD treatment of mice: hepatic total P450, EROD and MROD induction; format: in vivo, mouse; details: for increase of total hepatic cytochrome P450: TCDD 10 µg/kg i.p., 48 hours
Description: Mice were given a single intraperitoneal dose of TCDD (10 µg/kg) or vehicle control (corn oil) and then euthanized 48 hours after the dosing using a rising concentration of CO2.
Microsomal fractions were prepared as previously described ([Henderson et al., 2019]). In brief, fresh liver samples were homogenized in ice-cold SET(Sucrose-EDTA-Tris) buffer (0.25 M sucrose, 5 mM EDTA, 20 mM Tris-HCL, pH 7.4; 9 ml buffer/g liver) and centrifuged at 2000 rpm (Sorvall RTH-250, 10 minutes, 4°C). The supernatant was centrifuged (12,000 rpm, Sorvall SS-34 rotor, 20 minutes, 4°C), the resulting supernatant was centrifuged (∼30,000 rpm, Sorvall TFT-45.6, 90 minutes, 4°C) (ThermoFisher Scientific, UK), and microsomal pellets were resuspended in ice-cold SET buffer and stored at −70°C.
Microsomal protein concentration fractions were measured using a modification of a previously described method ([Lowry et al., 1951]) and total hepatic microsomal P450 as previously described ([Omura and Sato, 1964]).
A mixture of ER (0.93 μM) or MR (0.46 μM) and liver microsomes (0.004–0.27 mg protein/ml) in 100 mM potassium phosphate buffer (pH 7.4) supplemented with MgCl2 (3.3 mM) was incubated at 37°C for 5 minutes before the reaction was initiated by injection of NADPH (final concentration, 1.2 mM). […] Activities in duodenum, ileum, jejunum, colon, lung, kidney, spleen, heart, brain, and testis microsomes were measured as described earlier except for the following adjustments: MR concentration was 1 μM, concentration of total microsomal protein in the reaction was in the range of 0.07–0.43 mg/ml, and amount of resorufin added to calculate the reaction product concentration was 40 pmol.

[1] = Microsomal stability in mouse liver microsomes (WT, Cyp1a KO, hCYP1A1/1A2)
Description: The reaction was started by addition of 200 μl of NADPH to the remaining mixture of ramelteon with microsomes, and 100-μl aliquots were taken at 1, 2, 5, 10, 15, 20, and 30 minutes after the reaction start; mixed with an equal volume of ice-cold methanol containing the internal standard; incubated on ice for at least 20 minutes; and centrifuged for 15 minutes at 16,000 rcf and +4°C on Centrifuge 5415 R (Eppendorf, Hamburg, Germany). Control incubations were carried out without the cofactor or microsomes. The concentration of ramelteon in the supernatant was measured by high-performance liquid chromatography–tandem mass spectrometry (MS/MS). Chromatographic separation was performed on a Prodigy Phenyl-3 column (5 μm, 50 × 2.0 mm; Phenomenex) using an injection volume of 10 μl and a run time of 7 minutes. Mobile phase consisted of 0.1% solutions of formic acid in water (solvent A) and acetonitrile (solvent B). For elution, a linear gradient from 20% to 60% of solvent B in 4 minutes was used, followed by 3-minute equilibration at 20% B. The multiple reaction monitoring parameters for ramelteon and tacrine were 260.28, 199.2 (precursor ion) and 204.21, 171.11 (product ion), respectively. The concentrations of ramelteon were calculated from the calibration curve.

[2] = hCYP1A1/1A2 mice, liver microsomes

Structure (SMILES) | increase in MROD activity (Cyp1a/CYP1A enzymes; Cyp1a KO line, liver microsomes) | increase in EROD activity relative to untreated animals (Cyp1a/CYP1A enzymes; Cyp1a KO liver) | change in total P450 on TCDD treatment (Cyp1a/CYP1A enzymes; Cyp1a KO mice) | concentration of hepatic CYP1A1 estimated from EROD Vmax/kcat (Cyp1a/CYP1A enzymes; TCDD-treated hCYP1A1/1A2 mice) | CYP1A enzymes as share of total hepatic P450 content after TCDD (Cyp1a/CYP1A enzymes; WT mice) | increase of total hepatic cytochrome P450 (Cyp1a/CYP1A enzymes; WT mice) | increase in EROD activity relative to untreated animals (Cyp1a/CYP1A enzymes; WT mice, liver microsomes) | increase in MROD activity (Cyp1a/CYP1A enzymes; WT mice, liver microsomes) | total hepatic cytochrome P450 after TCDD (Cyp1a/CYP1A enzymes; WT mice, liver microsomes) | CYP1A enzymes as share of total hepatic P450 content after TCDD (Cyp1a/CYP1A enzymes; hCYP1A1/1A2 mice) | increase of total hepatic cytochrome P450 (Cyp1a/CYP1A enzymes; hCYP1A1/1A2 mice) | increase in EROD activity relative to untreated animals (Cyp1a/CYP1A enzymes; [2]) | increase in MROD activity (Cyp1a/CYP1A enzymes; [2]) | total hepatic cytochrome P450 after TCDD (Cyp1a/CYP1A enzymes; [2]) | fraction metabolized by Cyp1a2 ([1]; WT mice liver microsomes, eqs. 15 and 16) | fraction metabolized by CYP1A2 ([1]; hCYP1A1/1A2, mouse, microsomes, 1 µM, pH 7.4)
Clc1cc2c(cc1Cl)Oc1cc(Cl)c(Cl)cc1O2 [TCDD, 2,3,7,8-tetrachlorodibenzo-p-dioxin] | 4.6 fold | 3 fold | no change | 59 pmol/mg microsomal protein | 58% | 2.37 fold | ~114 fold | 44 fold | 840 pmol/mg protein | 46% | 1.84 fold | 39 fold | 31 fold | 632 pmol/mg protein |  | 
Nc1c2c(nc3ccccc13)CCCC2 [tacrine] |  |  |  |  |  |  |  |  |  |  |  |  |  |  | ~0.68 | ~0.60
